Where two headings read alike, the source gives them in different places. Residues, ends and D or L forms follow the SMILES beside them.
Key:
[1] = Intravenous pharmacokinetics; settings: for Nonlin fit of XY (Prism), mouse i.v. bolus / level at 1.23 h / level at 2 h / level at 3 h / level at 4 h / level at 8 h / level at 0.08 h / level at 0.5 h / level at 1 h / level at 24 h: Cross species PK; for Nonlin fit of XY (Prism), mouse i.v. bolus: fitted curve; for level at 1.23 h / level at 2 h / level at 3 h / level at 4 h / level at 8 h / level at 0.08 h / level at 0.5 h / level at 1 h / level at 24 h: concentration (Fig 6 source data)
Procedure: (§1) The studies were performed at Fidelta Ltd, Croatia (mice), under review by the institutional ethics committee (CARE-Zg), and Covance Laboratories UK and Muenster Germany (cynomolgus monkey and minipig) in accordance with the requirements of the Animals (Scientific Procedures) Act 1989 and a maintained local ethical review. All studies were contracted by Adenium Biotech ApS. Mice were housed in polysulfone cages with an acclimatization period of 7 days prior to experiments with air temperature maintained at 22 °C with 55% humidity and light–dark cycles of 12 h light. Cynomolgus monkeys of age range 4–7 years were selected, tested for health, acclimatized for 2 weeks, and housed in single-animal climate controlled stainless-steel cages with a minimum of 8 air changes per hour with air temperature at 19–25 °C and relative humidity 40–70%, and light–dark cycles of 12 h light. Minipigs of age range 4–6 months were selected, tested for health, acclimatized for 2 weeks, and housed in single-animal pens with 15–20 air changes per hour with air temperature at 22–26 °C with light–dark cycles of 12 h light.
Mouse i.v. injection: A formulation of AA139 in Ringer’s acetate pH 6.0 (1 mg mL^−1) was administered to male CD1 mice (Charles River, Italy) at 10 mg kg^−1 as a 400 μL slow injection into the lateral tail vein. Blood samples were collected from the jugular vein at eight timepoints (n = 3 mice): 0.08, 0.25, 0.5, 1, 2, 4, 8, and 24 h. AA139 was quantified in plasma using solid phase extraction (SPE) followed by liquid chromatography with tandem mass spectrometric detection (LC–MS/MS). Pharmacokinetic analysis was performed using Phoenix WinNonlin 6.2. (Pharsight Corporation) software using individual animal data, non-compartmental sparse analysis, and the actual dose as determined from formulation analysis by UPLC.
(§2) Mouse, monkey, and minipig i.v. 2-h infusion: AA139 formulated in Ringer’s acetate was administered intravenously to CD1 mice, cynomolgus monkeys (Macaca fascicularis) and Göttingen A/S minipigs (Ellegaard Göttingen, Denmark) by continuous infusion over 2 h (minipig under anesthesia). Individual dose volumes were based on individual body weight. Blood samples were collected at 0.5, 1, 2, 3, 4, 8, 10, and 12 h after the start of the infusion (n = 6 mice, male and female combined; n = 2 monkeys, one male and one female; n = 2 minipigs, one male and one female). Bioanalytical analysis was performed by SPE followed by LC–MS/MS. The method was validated for an AA139 concentration range of 43.4–21,700 ng mL^−1. Pharmacokinetic parameters were calculated by standard non-compartmental analysis (NCA) using Phoenix WinNonlin version 6.2. The studies were conducted in compliance with Good Laboratory Practice (GLP) regulations.

in vivo = settings: for level at 4 h / level at 8 h / level at 0.5 h / level at 1 h / level at 3 h / level at 12 h: Cross species PK, concentration (Fig 6 source data)
Procedure: as §1, §2

[2] = mouse IP
[3] = both, CD1, mouse, in vivo, iv, 10 mg kg-1
[4] = both, CD1, mouse, in vivo, iv, mouse 2h i.v. infusion, replicate 1
[5] = both, CD1, mouse, in vivo, iv, mouse 2h i.v. infusion, replicate 2
[6] = both, CD1, mouse, in vivo, iv, mouse 2h i.v. infusion, replicate 3
[7] = male, CD1, mouse, in vivo, iv, 10 mg kg-1
[8] = male, CD1, mouse, in vivo, iv, 10 mg/kg, mouse i.v. bolus, replicate 1
[9] = male, CD1, mouse, in vivo, iv, 10 mg/kg, mouse i.v. bolus, replicate 2
[10] = male, CD1, mouse, in vivo, iv, 10 mg/kg, mouse i.v. bolus, replicate 3
[11] = Göttingen, minipig, in vivo, iv, minipig 2h i.v. infusion, replicate 1
[12] = Göttingen, minipig, in vivo, iv, minipig 2h i.v. infusion, replicate 2
[13] = both, Göttingen, minipig, in vivo, iv, 10 mg kg-1
[14] = both, cynomolgus monkey, in vivo, iv, 10 mg kg-1
[15] = cynomolgus monkey, in vivo, iv, monkey 2h i.v. infusion, replicate 1
[16] = cynomolgus monkey, in vivo, iv, monkey 2h i.v. infusion, replicate 2
[17] = cynomolgus monkey, in vivo, iv, monkey 2h i.v. infusion, replicate 3
[18] = cynomolgus monkey, in vivo, iv, monkey 2h i.v. infusion, replicate 4

## CC(C)[C@@H]1NC(=O)[C@H](Cc2ccc(O)cc2)NC(=O)[C@H](Cc2c[nH]c3ccccc23)NC(=O)[C@@H](NC(=O)[C@H](Cc2ccccc2)NC(=O)CN)CSSC[C@@H](C(=O)N[C@@H](CC(N)=O)C(=O)O)NC(=O)[C@H](CCCNC(=N)N)NC(=O)[C@H](CCCNC(=N)N)NC(=O)[C@H](Cc2ccc(O)cc2)NC(=O)[C@@H]2CSSC[C@H](NC1=O)C(=O)N[C@@H](C)C(=O)N[C@@H](CCCNC(=N)N)C(=O)N[C@@H](CCCNC(=N)N)C(=O)N[C@@H](CC(N)=O)C(=O)NCC(=O)N[C@@H](C)C(=O)N[C@@H](CCCNC(=N)N)C(=O)N[C@@H](C(C)C)C(=O)N2 [AA139] (HELM PEPTIDE1{G.F.C.W.Y.V.C.A.R.R.N.G.A.R.V.C.Y.R.R.C.N}$PEPTIDE1,PEPTIDE1,3:R3-20:R3|PEPTIDE1,PEPTIDE1,7:R3-16:R3$$$V2.0)
[1]; Time 19.1952 h
  Nonlin fit of XY (Prism), mouse i.v. bolus: 546.556
[1]; Time 20.1802 h
  Nonlin fit of XY (Prism), mouse i.v. bolus: 523.855
[1]; Time 23.952 h
  Nonlin fit of XY (Prism), mouse i.v. bolus: 452.817
[1]; [3]
  AUC(0-inf): 14000 ng·h/mL
  half-life: 174 min
[1]; [4]
  level at 1.23 h: 4540 ng/mL
  level at 2 h: 8160 ng/mL
  level at 3 h: 3530 ng/mL
  level at 4 h: 1350 ng/mL
  level at 8 h: 110 ng/mL
[1]; [5]
  level at 1.23 h: 4960 ng/mL
  level at 2 h: 8010 ng/mL
  level at 3 h: 3750 ng/mL
  level at 4 h: 1140 ng/mL
  level at 8 h: 216 ng/mL
[1]; [6]
  level at 1.23 h: 4090 ng/mL
  level at 2 h: 3870 ng/mL
  level at 3 h: 1420 ng/mL
  level at 4 h: 1490 ng/mL
  level at 8 h: 178 ng/mL
[1]; i.v., mice, cynomolgus monkeys and minipigs
  Clearance relative to rate of liver blood flow: ~ 20%
[1]; i.v., mice, cynomolgus monkeys and minipigs, bi-exponential elimination
  half-life: 120 to 240 min
[1]; [7]
  AUC(0-inf): 24900 ng·h/mL
  Vd: 0.91 L/kg
  half-life: 192 min
[1]; male, CD1, mouse, in vivo, iv, 10 mg/kg
  Cmax: 16200 ng/mL
[1]; [8]
  level at 0.08 h: 14900 ng/mL
  level at 0.5 h: 8770 ng/mL
  level at 1 h: 7140 ng/mL
  level at 2 h: 5140 ng/mL
  level at 4 h: 1600 ng/mL
  level at 8 h: 402 ng/mL
  level at 24 h: 48 ng/mL
[1]; [9]
  level at 0.08 h: 10800 ng/mL
  level at 0.5 h: 8380 ng/mL
  level at 1 h: 5150 ng/mL
  level at 2 h: 2960 ng/mL
  level at 4 h: 1470 ng/mL
  level at 8 h: 388 ng/mL
  level at 24 h: 32 ng/mL
[1]; [10]
  level at 0.08 h: 13200 ng/mL
  level at 0.5 h: 6290 ng/mL
  level at 1 h: 3780 ng/mL
  level at 2 h: 3850 ng/mL
  level at 4 h: 1500 ng/mL
  level at 8 h: 472 ng/mL
  level at 24 h: 31 ng/mL
[1]; mouse 2h i.v. infusion, time 10 h, replicate 1
  Cross species PK, concentration (Fig 6 source data): 88
[1]; mouse 2h i.v. infusion, time 10 h, replicate 2
  Cross species PK, concentration (Fig 6 source data): 124
[1]; mouse 2h i.v. infusion, time 10 h, replicate 3
  Cross species PK, concentration (Fig 6 source data): 134
[1]; mouse 2h i.v. infusion, time 12 h, replicate 1
  Cross species PK, concentration (Fig 6 source data): 72.4
[1]; mouse 2h i.v. infusion, time 12 h, replicate 2
  Cross species PK, concentration (Fig 6 source data): 93.8
[1]; mouse 2h i.v. infusion, time 12 h, replicate 3
  Cross species PK, concentration (Fig 6 source data): 62.7
In vivo; [11]
  level at 4 h: 2850 ng/mL
  level at 8 h: 1510 ng/mL
In vivo; [12]
  level at 4 h: 3110 ng/mL
  level at 8 h: 1240 ng/mL
In vivo; [13]
  Vd: 1.2 L/kg
  half-life: 186 min
In vivo; both, Göttingen, minipig, in vivo, iv, minipig 2h i.v. infusion, time 0.5 h, replicate 1
  level at 0.5 h: 4830 ng/mL
In vivo; both, Göttingen, minipig, in vivo, iv, minipig 2h i.v. infusion, time 1 h, replicate 2
  level at 1 h: 6780 ng/mL
In vivo; both, Göttingen, minipig, in vivo, iv, minipig 2h i.v. infusion, replicate 1
  level at 3 h: 4100 ng/mL
In vivo; both, Göttingen, minipig, in vivo, iv, minipig 2h i.v. infusion, replicate 2
  level at 3 h: 5080 ng/mL
In vivo; [14]
  AUC(0-inf): 40800 ng·h/mL
  Vd: 0.87 L/kg
  half-life: 144 min
In vivo; both, cynomolgus monkey, in vivo, iv, monkey 2h i.v. infusion, time 0.5 h, replicate 2
  level at 0.5 h: 6540 ng/mL
In vivo; both, cynomolgus monkey, in vivo, iv, monkey 2h i.v. infusion, time 0.5 h, replicate 3
  level at 0.5 h: 7630 ng/mL
In vivo; both, cynomolgus monkey, in vivo, iv, monkey 2h i.v. infusion, time 0.5 h, replicate 4
  level at 0.5 h: 13500 ng/mL
In vivo; both, cynomolgus monkey, in vivo, iv, monkey 2h i.v. infusion, time 1 h, replicate 1
  level at 1 h: 9000 ng/mL
In vivo; both, cynomolgus monkey, in vivo, iv, monkey 2h i.v. infusion, time 1 h, replicate 2
  level at 1 h: 9340 ng/mL
In vivo; both, cynomolgus monkey, in vivo, iv, monkey 2h i.v. infusion, time 1 h, replicate 3
  level at 1 h: 8480 ng/mL
In vivo; both, cynomolgus monkey, in vivo, iv, monkey 2h i.v. infusion, replicate 1
  level at 3 h: 5390 ng/mL
In vivo; both, cynomolgus monkey, in vivo, iv, monkey 2h i.v. infusion, replicate 2
  level at 3 h: 5440 ng/mL
In vivo; both, cynomolgus monkey, in vivo, iv, monkey 2h i.v. infusion, replicate 3
  level at 3 h: 4440 ng/mL
In vivo; both, cynomolgus monkey, in vivo, iv, monkey 2h i.v. infusion, replicate 4
  level at 3 h: 6120 ng/mL
In vivo; [15]
  level at 4 h: 3590 ng/mL
  level at 8 h: 1270 ng/mL
In vivo; [16]
  level at 4 h: 3930 ng/mL
  level at 8 h: 1290 ng/mL
In vivo; [17]
  level at 4 h: 2240 ng/mL
  level at 8 h: 2720 ng/mL
  level at 12 h: 860 ng/mL
In vivo; [18]
  level at 4 h: 2830 ng/mL
  level at 8 h: 2460 ng/mL
  level at 12 h: 802 ng/mL
In vivo; minipig 2h i.v. infusion, time 0.5 h, replicate 2
  Cross species PK, concentration (Fig 6 source data): 6298
In vivo; minipig 2h i.v. infusion, time 1 h, replicate 1
  Cross species PK, concentration (Fig 6 source data): 4846
In vivo; minipig 2h i.v. infusion, time 2 h, replicate 1
  Cross species PK, concentration (Fig 6 source data): 7751
In vivo; minipig 2h i.v. infusion, time 2 h, replicate 2
  Cross species PK, concentration (Fig 6 source data): 9612
In vivo; monkey 2h i.v. infusion, time 0.5 h, replicate 1
  Cross species PK, concentration (Fig 6 source data): 6780
In vivo; monkey 2h i.v. infusion, time 1 h, replicate 4
  Cross species PK, concentration (Fig 6 source data): 15900
In vivo; monkey 2h i.v. infusion, time 2 h, replicate 1
  Cross species PK, concentration (Fig 6 source data): 8610
In vivo; monkey 2h i.v. infusion, time 2 h, replicate 2
  Cross species PK, concentration (Fig 6 source data): 11100
In vivo; monkey 2h i.v. infusion, time 2 h, replicate 3
  Cross species PK, concentration (Fig 6 source data): 21300
In vivo; monkey 2h i.v. infusion, time 2 h, replicate 4
  Cross species PK, concentration (Fig 6 source data): 6780
[2]; time 0.08 h, replicate 1
  Cross species PK, concentration (Fig 6 source data): 6190
[2]; time 0.08 h, replicate 3
  Cross species PK, concentration (Fig 6 source data): 3520
[2]; time 0.5 h, replicate 1
  Cross species PK, concentration (Fig 6 source data): 5370
[2]; time 0.5 h, replicate 2
  Cross species PK, concentration (Fig 6 source data): 4790
[2]; time 0.5 h, replicate 3
  Cross species PK, concentration (Fig 6 source data): 6580

Reference: article PMC7311426, “An amphipathic peptide with antibiotic activity against multidrug-resistant Gram-negative bacteria” (Nature Communications, 2020)
